Experimental data taken from patent publication US9758516B2, “Crystalline form of an anxiolytic compound” (Bionomics Limited, priority 2013, dated 2017).

Legend:
[1] = Stability study of Form B stored at about 40° C. and about 75% r.h. (HPLC, XRPD, IR); type: physicochemical; parameters: key to XRPD / IR: The term “complies” refers to substantially the same XRPD pattern and/or IR spectrum as the sample at the incept of the storage (time point=initial); conditions: for Concentration of compound 1 by HPLC Assay (anhydrous basis) / IR / XRPD: about 40° C., about 75% r.h.
Protocol: Standard solutions of the SP196-FD-P1 free drug of compound 1 and the L-malate salt of compound 1 (SP196-MLA-P4) were prepared in the concentration range of 0.2-0.05 mg/mL for the construction of a calibration curve.
Another sample of Form B was stored at about 40° C. and about 75% r.h. for a period of time (e.g., 6 months). The concentration of compound 1 in the sample was assayed using HPLC, XRPD, and IR at different time points. The term “complies” refers to substantially the same XRPD pattern and/or IR spectrum as the sample at the incept of the storage (time point=initial).

[2] = Drying of Form B under vacuum at 40° C.; type: physicochemical
Protocol: A solid sample of Form B was dried in an attempt to dehydrate it. The sample was stored under vacuum (<5 mbar (e.g., about 4 mbar)) at 40° C. overnight or for 1 day.

[3] = Competitive slurry experiment, Form B versus anhydrous form; type: physicochemical
Text: In some embodiments, it would be desirable to provide a crystalline polymorph of compound 1 that, as compared to the amorphous compound 1, imparts improved physical characteristics such as stability and/or ease of formulation. Accordingly, provided herein is a crystalline form (denoted Form B) of compound 1. Form B is a hemihydrate of compound 1. […] In some embodiments, Form B has a water content of about 2.0 wt %. […] In a competitive slurry experiment there was a tendency for the anhydrous form to convert to Form B.

[4] = Stability study of Form B stored at about 25° C. and about 60% r.h. (HPLC, XRPD, IR); type: physicochemical; parameters: key to XRPD / IR: The term “complies” refers to substantially the same XRPD pattern and/or IR spectrum as the sample at the incept of the storage (time point=initial); conditions: for Concentration of compound 1 by HPLC Assay (anhydrous basis) / IR / XRPD: about 25° C., about 60% r.h.
Protocol: A sample of Form B was stored at about 25° C. and about 60% r.h. for a period of time (e.g., 24 months). The concentration of compound 1 in the sample was assayed using HPLC, XRPD, and IR at different time points. The term “complies” refers to substantially the same XRPD pattern and/or IR spectrum as the sample at the incept of the storage (time point=initial).

[5] = Dynamic vapor sorption (DVS) measurement, hygroscopicity; type: physicochemical
Protocol: Projekt Messtechnik Sorptions Prüfsystem SPS 11-100n or Surface Measurement Systems DVS-1. The sample was placed on an aluminum or platinum holder on top of a microbalance and allowed to equilibrate for 2 h at 50% r.h. before starting one of two pre-defined humidity programs:
(2) 50→0% r.h. (5%/h); 5 h at 0% r.h.;
(3) 0→95% r.h. (5%/h); 5 h at 95% r.h.; and
The hygroscopicity was classified based on the mass gain at 85% r.h. relative to the initial mass as follows: deliquescent (sufficient water adsorbed to form a liquid), very hygroscopic (mass increase of ≧15%), hygroscopic (mass increase <15% and ≧2%), slightly hygroscopic (mass increase <2% and ≧0.2%), or non-hygroscopic (mass increase <0.2%).
During the DVS measurement (FIG. 4), the relative humidity was first lowered from 50% r.h. to 0% r.h., then raised from 0% r.h. to 95% r.h. and lowered back again to 50% r.h. […] Upon increasing the relative humidity to 95% r.h., a gradual mass gain of about 0.3 wt % (relative to the mass at 0% r.h.) was observed. […] The mass increase of 0.1 wt % at 85% r.h. (relative to the starting mass at 50% r.h.) classifies the sample as non-hygroscopic.

[6] = reported, see U.S. Pat. No. 8,293,737; cited from earlier work
[7] = vacuum (<5 mbar) at 40° C. overnight or for 1 day

CCn1cc(C(=O)N2CCOCC2)c(=O)c2cc(NC3Cc4ccccc4C3)cnc21 [Form B, 1-ethyl-6-(indan-2-ylamino)-3-(morpholine-4-carbonyl)-1,8-naphthyridin-4-one]
stable upon storage, duration ([1]; about 40° C. and about 75% r.h.): at least 6 months
Concentration of compound 1 by HPLC Assay (anhydrous basis) ([1]; 1 month): 99.6% w/w
Concentration of compound 1 by HPLC Assay (anhydrous basis) ([1]; 2 months): 99.3% w/w
Concentration of compound 1 by HPLC Assay (anhydrous basis) ([1]; 3 months): 99.3% w/w
IR ([1]; 3 months): complies
XRPD ([1]; 3 months): complies
Concentration of compound 1 by HPLC Assay (anhydrous basis) ([1]; 6 months): 99.4% w/w
IR ([1]; 6 months): complies
XRPD ([1]; 6 months): complies
Concentration of compound 1 by HPLC Assay (anhydrous basis) ([1]; time point Initial): 99.5% w/w
stability upon drying [2]: stable upon drying
loss of H2O of the dried sample (TG-FTIR) ([2]; dried sample, from 50° C. to 200° C.): about 1.9 wt %
XRPD pattern of the dried sample compared to before drying [2, 7]: unchanged
dehydration on drying [2, 7]: no dehydration and loss of solvent occurred
relative stability of forms [3]: more stable than an anhydrous form of compound 1
stable upon storage, duration ([4]; about 25° C. and about 60% r.h.): at least 24 months
Concentration of compound 1 by HPLC Assay (anhydrous basis) ([4]; 3 months): 99.4% w/w
IR ([4]; 3 months): complies
XRPD ([4]; 3 months): complies
Concentration of compound 1 by HPLC Assay (anhydrous basis) ([4]; 6 months): 99.6% w/w
IR ([4]; 6 months): complies
XRPD ([4]; 6 months): complies
Concentration of compound 1 by HPLC Assay (anhydrous basis) ([4]; 12 months): 99.3% w/w
IR ([4]; 12 months): complies
XRPD ([4]; 12 months): complies
Concentration of compound 1 by HPLC Assay (anhydrous basis) ([4]; 18 months): 99.4% w/w
IR ([4]; 18 months): complies
XRPD ([4]; 18 months): complies
Concentration of compound 1 by HPLC Assay (anhydrous basis) ([4]; 24 months): 99.2% w/w
IR ([4]; 24 months): complies
XRPD ([4]; 24 months): complies
Concentration of compound 1 by HPLC Assay (anhydrous basis) ([4]; time point Initial): 99.5% w/w
hygroscopicity (in words) [5]: substantially non-hygroscopic
FT-Raman spectrum after the DVS measurement compared to before ([5]; after DVS cycle 50→0→95→50% r.h.): unchanged
mass increase (DVS) ([5]; at 85% r.h., relative to the starting mass at 50% r.h.): 0.1 wt %
hygroscopicity classification ([5]; based on the mass gain at 85% r.h. relative to the initial mass): non-hygroscopic (non-hygroscopic (mass increase <0.2%))
mass gain (DVS) ([5]; upon increasing the relative humidity to 95% r.h., relative to the mass at 0% r.h.): about 0.3 wt %
mass loss (DVS) ([5]; upon lowering the relative humidity from 50% r.h. to 0% r.h.): about 0.1 wt %
final mass (DVS) ([5]; upon lowering the relative humidity from 95% r.h. to 50% r.h.): equal to the starting mass

CCn1cc(C(=O)N2CCOCC2)c(=O)c2cc(NC3Cc4ccccc4C3)cnc21 [Compound 1, 1-ethyl-6-(indan-2-ylamino)-3-(morpholine-4-carbonyl)-1,8-naphthyridin-4-one]
sedative side effects [6]: without sedative side effects
